The test system of series [1] is previously treated non-squamous non-small-cell lung cancer. As to conditions: cited from earlier work; for Median survival time (MST): CheckMate-057, primary outcome; for Disease progression rate / Response rate: CheckMate-057.
The subject of series [2] is previously treated squamous-cell lung cancer. As to conditions: cited from earlier work; for Median survival time (MST): CheckMate-017, primary outcome; for Disease progression rate / Response rate: CheckMate-017.
The test system of series [3] is previously treated non-small-cell lung cancer. As to conditions: cited from earlier work; for MST: POPLAR.
For series [4] the test system is unchanged. As to conditions: cited from earlier work.
The nature of series [5]: Repeated administration toxicity trial for 10 weeks into the dorsal skin. As to conditions: both sexes, Sprague-Dawley (Crl:CD(SD)), rat, in vivo; both males and females, 10 weeks repeated administration; read-out: No-observed-adverse-effect level. The protocol: A toxicity trial was performed in which a mixture of SLP1 and SLP2 was repeatedly administered for 10 weeks (intermittently administered five times every 14 days) with an adjuvant into the dorsal skin of Sprague-Dawley rats (Crl:CD(SD), 6-week-old at the start of administration, a group of 10 males and 10 females).
The following two doses were adopted as the doses of the test substances: 0.2 mg/kg (SLP1: 0.2 mg/kg+SLP2: 0.2 mg/kg) and 2 mg/kg (SLP1: 2 mg/kg+SLP2: 2 mg/kg). SLP1 and SLP2 dissolved in water for injection and Picibanil were mixed with an equal amount of an oil adjuvant MONTANIDE ISA 51 VG (ISA51) to provide an emulsion, which was administered into the dorsal skin in an administration volume of 1 mL/kg. Further, a vehicle control group to be administered an emulsion of water for injection and Picibanil with ISA51 and a physiological saline control group to be administered physiological saline were formed.
During the administration period, general condition observation, body weight measurement, and food intake measurement were performed, and urine examination and ophthalmologic examination were performed in week 10 of the administration. At the end of the administration period, hematological examination, blood chemical examination, an autopsy, organ weight measurement, and histopathological examination were performed.

[6] abbreviates: KEYNOTE-010, tumor PD-L1 expression of 1% or more.
Setting [7] is: KEYNOTE-010, tumor PD-L1 expression of 50% or more.

Read-outs that look alike come from different tables or passages of the source. Where no end group is shown, it is not given here.

As for `CC(=O)O[C@@]12CO[C@@H]1C[C@H](O)[C@@]1(C)C(=O)[C@H](O)C3=C(C)[C@@H](OC(=O)[C@H](O)[C@@H](NC(=O)OC(C)(C)C)c4ccccc4)C[C@@](O)([C@@H](OC(=O)c4ccccc4)[C@H]21)C3(C)C` [docetaxel], the figures for the “Median survival time (MST)” value in series [1] and in series [2] were 9.4 months and 6.0 months, respectively. Also, the Disease progression rate is recorded as 29% in series [1] and 30% in series [2]. Also, the Response rate in series [1] is recorded as 12%; in series [2], 31%; in series [3] (group expressing no PD-L1 in the cancer immune microenvironment) it was “about 15%”; in series [4] (setting [6]), 9.3%; in series [4] (setting [7]), 7.9%. Besides, the MST in series [3] is reported as 9.7 months; in series [4] (setting [6]), 8.5 months.
Consider ISQTPGINLDLGSGVKVKIIPKEEH [SLP2], for which the NOAEL at 1680 h in series [5] is above 2 mg/kg.
On the same count and under the same terms, in the case of NQQLKVGILHLGSRQKKIRIQLRSQ [SLP1] it was above 2 mg/kg.
For atezolizumab, in series [3], the MST is listed as 12.6 months. The Response rate in series [3] (group highly expressing PD-L1 in the cancer immune microenvironment) is reported as 38%.
On to nivolumab, for which, in series [1], the “Median survival time (MST)” value is recorded as 12.2 months, the Disease progression rate was 44% and the Response rate is given as 19%. Moreover, in series [2], the “Median survival time (MST)” value was 9.2 months, the Disease progression rate is given as 33% and the Response rate is reported as 36%.
As for pembrolizumab, in series [4] (setting [6]), the “Progression-free survival (PFS) as compared to docetaxel group” value is recorded as “No significant difference”. Moreover, the “PFS as compared to docetaxel group” value in series [4] (setting [7]) is listed as “significantly improved”.

The values are drawn from patent US11709165B2, “Examination method for prediction of effect of treatment of cancer based on detection of cancer/testis antibodies” (KAWASAKI GAKUEN EDUCATIONAL FOUNDATION, priority 2017, dated 2023).
